We go through two compounds from patent US9651554B2, “Molecular diagnostic methods for predicting brain metastasis of breast cancer” (The Methodist Hospital Research Institute, priority 2010, dated 2017).

One data set can be described thus: in vivo. The note with it: BALB/c nude, mouse, po. As to the method:
Blood and whole brain of the mice were harvested 6 hours after the last treatment. Plasma was isolated from blood by centrifugation at 3000 rpm for 10 min at 4° C. Half of each brain was flash frozen using liquid nitrogen. All plasma and brain samples were stored at −80° C. until analysis by HPLC-MS/MS.
The separation was performed by injecting 10 μL of the sample on Acquity HPLC BEH C18 column (50×2.1 mm I.D., 1.7 μm, Waters, Milford, Mass., USA). […] The flow rate was 0.45 mL/min using a column temperature of 45° C.
The blood and whole brain of the mice were harvested six hours after the last treatment and the drug concentrations were measured by HPLC-MS/MS.

Another data set deals with 231-BR-HER2 cells. The data set can be described thus: Brain metastasis xenograft, 231-BR-HER2 model: metastases counted in H&E-stained brain sections. The note with it: for fewer large metastases than vehicle / fewer micrometastases than vehicle: 231-BR-HER2 cells, p<0.05; for Micro metastases # / large metastases #: 231-BR-HER2 model; for Micro metastases #: ≦50 μm^2; for large metastases #: >50 μm^2.

The next data set has as its system 231-BR-vector cells. Briefly: Brain metastasis xenograft, 231-BR-vector model: metastases counted in H&E-stained brain sections. The note with it: for large metastases # / Micro metastases #: 231-BR-vector model; for large metastases #: >50 μm^2; for Micro metastases #: ≦50 μm^2.
For data set [1] the following is noted: reported (Porkka et al., 2008); cited from earlier work.
Setting [2] is: 40 mg/kg once daily oral 28 days.
Where [3] appears, read: 80 mg/kg once daily oral 28 days.
Where [4] appears, read: 25 mg/kg once daily oral 28 days.
[5] abbreviates: 50 mg/kg once daily oral 28 days.

Source text for 231-BR-vector cells: Treatment started 3 days after cell injection.
Brain sections (10 μm thick) were serially sectioned.
Mice received 28 days treatment, and all mice were sacrificed, and brains were harvested for ex vivo whole-brain fluorescent imaging of EGFP-positive brain metastases.

As to `CCN(CC)CCNC(=O)c1c(C)[nH]c(/C=C2\C(=O)Nc3ccc(F)cc32)c1C` [Sunitinib], the Kp at 336 h in the data set “in vivo” lay within 0.24 to 0.31. In addition, the “fewer large metastases than vehicle” value in the data set with 231-BR-HER2 cells (40 or 80 mg/kg body weight) is given as 22.7-24.8%. Also, the “fewer micrometastases than vehicle” value in the data set with 231-BR-HER2 cells (40 or 80 mg/kg body weight) is listed as 22.3-31.9%; with 231-BR-vector cells (231-BR-vector cells, 40 or 80 mg/kg body weight, p<0.05), 28.5-31.3%. Besides, the “Micro metastases #” value in the data set on 231-BR-HER2 cells (setting [2]) is listed as 228.1 ± 28.3; in the data set with 231-BR-HER2 cells (setting [3]) it was 199.8 ± 24.1; with 231-BR-vector cells (setting [3]), 150.2 ± 22. In addition, the “fewer large metastasis than vehicle” value in the data set on 231-BR-vector cells (231-BR-vector cells, 80 mg/kg body weight, p<0.05) was 31%. Also, the figures for the “large metastases #” value in the data set on 231-BR-vector cells (setting [2]) and in the data set on 231-BR-vector cells (setting [3]) were 11.8 ± 2.0 and 10.2 ± 1.3, respectively.
Turning to `Cc1nc(Nc2ncc(C(=O)Nc3c(C)cccc3Cl)s2)cc(N2CCN(CCO)CC2)n1` [Dasatinib], the Kp at 336 h in the data set “in vivo” fell in the range of 0.06 to 0.12. Further, the BBB crossing entry in data set [1] is “able to cross the BBB”. The “fewer large metastases than vehicle” value is reported as 38.1-56.9% in the data set with 231-BR-HER2 cells (25 or 50 mg/kg body weight) and 41.9-49.3% in the data set on 231-BR-vector cells (231-BR-vector cells, 25 or 50 mg/kg, p<0.05). Further, the “fewer micrometastases than vehicle” value in the data set with 231-BR-HER2 cells (25 or 50 mg/kg body weight) is reported as 40.2-61.4%; with 231-BR-vector cells (231-BR-vector cells, 25 or 50 mg/kg body weight, p<0.05) it was 33.8-54.4%. The “large metastases #” value in the data set on 231-BR-HER2 cells (setting [4]) is given as 12.5 ± 1.8; in the data set with 231-BR-HER2 cells (setting [5]), 8.7 ± 1.6; in the data set with 231-BR-vector cells (setting [4]), 8.6 ± 1.5; with 231-BR-vector cells (setting [5]), 7.5 ± 1.3. For the same compound, the “Micro metastases #” value turned out to be 175.7 ± 27.8 in the data set with 231-BR-HER2 cells (setting [4]), 113.2 ± 23.8 in the data set with 231-BR-HER2 cells (setting [5]), 144.6 ± 12.5 with 231-BR-vector cells (setting [4]) and 99.5 ± 10.3 in the data set with 231-BR-vector cells (setting [5]).
